Source: patent US20090118332A1, “Therapeutic Agents - 551” (AstraZeneca AB, priority 2006, published 2009)

Biological target: T1, human Fatty Acid Synthase (Homo sapiens, UniProt P49327)
T1 construct: made in house
Experiment: Human FAS enzyme assay (decrease in NADPH fluorescence)
Type: biochemical
Settings: % inhibition at a concentration of 100 μmolar
Procedure, shortened: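 In-house human FAS was preincubated with compound and NADPH for 15 min at room temperature in 0.1 M Tris pH 7.5 with EDTA, glutathione and BSA. Malonyl CoA and acetyl CoA (500 μM and 150 μM in the added mix) were then added for 60 min. IC50 came from time-zero-subtracted NADPH fluorescence (340/460 nm).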

T1 sequence (P49327 whole entry): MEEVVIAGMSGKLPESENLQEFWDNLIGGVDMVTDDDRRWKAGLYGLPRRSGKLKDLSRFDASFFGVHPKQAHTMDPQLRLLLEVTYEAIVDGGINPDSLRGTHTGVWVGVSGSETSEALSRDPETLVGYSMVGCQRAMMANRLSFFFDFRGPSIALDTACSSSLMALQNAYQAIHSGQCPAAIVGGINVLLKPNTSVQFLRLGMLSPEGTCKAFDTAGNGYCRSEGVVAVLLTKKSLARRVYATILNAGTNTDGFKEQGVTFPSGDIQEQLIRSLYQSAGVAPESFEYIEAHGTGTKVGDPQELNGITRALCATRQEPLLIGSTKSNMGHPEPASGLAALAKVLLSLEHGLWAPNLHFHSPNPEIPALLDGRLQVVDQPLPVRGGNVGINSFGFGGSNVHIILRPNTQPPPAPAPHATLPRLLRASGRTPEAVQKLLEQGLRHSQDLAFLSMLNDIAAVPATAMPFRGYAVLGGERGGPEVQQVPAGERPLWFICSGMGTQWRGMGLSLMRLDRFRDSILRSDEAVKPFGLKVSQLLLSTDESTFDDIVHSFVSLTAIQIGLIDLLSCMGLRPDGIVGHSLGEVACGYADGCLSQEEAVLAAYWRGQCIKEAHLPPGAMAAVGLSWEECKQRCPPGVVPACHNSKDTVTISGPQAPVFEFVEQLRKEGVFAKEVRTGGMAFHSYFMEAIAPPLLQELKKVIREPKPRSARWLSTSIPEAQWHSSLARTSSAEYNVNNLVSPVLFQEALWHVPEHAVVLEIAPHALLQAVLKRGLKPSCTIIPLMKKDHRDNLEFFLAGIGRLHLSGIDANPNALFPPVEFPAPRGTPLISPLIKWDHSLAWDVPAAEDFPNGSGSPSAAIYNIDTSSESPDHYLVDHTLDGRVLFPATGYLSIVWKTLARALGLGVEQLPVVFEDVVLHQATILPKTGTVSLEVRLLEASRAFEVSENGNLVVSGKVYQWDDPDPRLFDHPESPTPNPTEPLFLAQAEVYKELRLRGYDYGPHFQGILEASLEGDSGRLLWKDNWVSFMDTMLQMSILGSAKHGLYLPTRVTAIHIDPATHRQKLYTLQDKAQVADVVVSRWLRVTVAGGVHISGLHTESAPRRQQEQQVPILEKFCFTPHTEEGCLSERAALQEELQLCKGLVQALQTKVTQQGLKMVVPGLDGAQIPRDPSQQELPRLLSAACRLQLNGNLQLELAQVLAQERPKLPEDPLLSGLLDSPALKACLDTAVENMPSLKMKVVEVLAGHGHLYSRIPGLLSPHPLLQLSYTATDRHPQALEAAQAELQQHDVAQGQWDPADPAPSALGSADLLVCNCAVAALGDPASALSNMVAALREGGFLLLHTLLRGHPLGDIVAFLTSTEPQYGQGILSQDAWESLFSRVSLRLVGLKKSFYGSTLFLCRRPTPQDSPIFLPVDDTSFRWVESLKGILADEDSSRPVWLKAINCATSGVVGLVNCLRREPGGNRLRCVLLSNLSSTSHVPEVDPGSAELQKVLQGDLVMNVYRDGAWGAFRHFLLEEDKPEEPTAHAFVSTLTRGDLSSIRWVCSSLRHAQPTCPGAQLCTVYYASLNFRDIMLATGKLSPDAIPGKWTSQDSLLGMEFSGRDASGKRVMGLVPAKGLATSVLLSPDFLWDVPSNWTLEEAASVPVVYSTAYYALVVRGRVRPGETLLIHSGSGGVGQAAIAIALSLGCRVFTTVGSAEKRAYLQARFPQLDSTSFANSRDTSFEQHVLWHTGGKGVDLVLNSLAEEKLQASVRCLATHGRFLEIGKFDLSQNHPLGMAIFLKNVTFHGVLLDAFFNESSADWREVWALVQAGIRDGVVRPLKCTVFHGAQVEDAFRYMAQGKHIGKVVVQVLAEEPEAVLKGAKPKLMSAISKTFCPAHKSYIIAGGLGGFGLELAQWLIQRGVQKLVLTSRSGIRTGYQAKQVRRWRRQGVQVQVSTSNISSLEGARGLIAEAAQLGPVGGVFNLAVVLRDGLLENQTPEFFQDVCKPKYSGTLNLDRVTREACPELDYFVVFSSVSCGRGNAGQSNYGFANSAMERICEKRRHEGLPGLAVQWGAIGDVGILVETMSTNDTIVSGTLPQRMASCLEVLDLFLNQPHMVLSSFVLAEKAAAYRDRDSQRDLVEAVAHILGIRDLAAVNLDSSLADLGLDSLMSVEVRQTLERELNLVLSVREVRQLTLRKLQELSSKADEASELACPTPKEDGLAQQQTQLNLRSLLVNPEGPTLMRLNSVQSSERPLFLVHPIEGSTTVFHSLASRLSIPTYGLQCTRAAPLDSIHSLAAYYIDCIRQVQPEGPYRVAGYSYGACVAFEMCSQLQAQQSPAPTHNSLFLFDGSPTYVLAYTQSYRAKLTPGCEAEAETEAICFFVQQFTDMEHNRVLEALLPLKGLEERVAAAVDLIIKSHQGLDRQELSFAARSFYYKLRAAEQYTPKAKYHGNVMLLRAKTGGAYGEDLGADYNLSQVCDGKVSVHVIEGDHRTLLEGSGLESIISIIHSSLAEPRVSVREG

Row | SMILES | inhibition at 100 µM [%]
1 | CSCCCNC(=O)Nc1cc(C(=O)N2CCC(c3ccc(C#N)cc3)CC2)ccc1C [Example 157, 1-[5-[4-(4-cyanophenyl)piperidine-1-carbonyl]-2-methyl-phenyl]-3-(3-methylsulfanylpropyl)urea] | 92.7
2 | CCOCCCNC(=O)Nc1cc(C(=O)N2CCC(c3ccc(C#N)cc3)CC2)ccc1C [Example 158, 3-[5-[4-(4-cyanophenyl)piperidine-1-carbonyl]-2-methyl-phenyl]-1-(3-ethoxypropyl)urea] | 89.1
3 | COC(C)(C)CNC(=O)Nc1cc(C(=O)N2CCC(c3ccc(C#N)cc3)CC2)ccc1C [Example 159, 1-[5-[4-(4-cyanophenyl)piperidine-1-carbonyl]-2-methyl-phenyl]-3-(2-methoxy-2-methyl-propyl)urea] | 88
4 | COCCOCCCNC(=O)Nc1cc(C(=O)N2CCC(c3ccc(C#N)cc3)CC2)ccc1C [Example 161, 1-[5-[4-(4-cyanophenyl)piperidine-1-carbonyl]-2-methyl-phenyl]-3-[3-(2-methoxyethoxy)propyl]urea] | 93.7
5 | Cc1ccc(C(=O)N2CCC(c3ccc(C#N)cc3)CC2)cc1NC(=O)NC1COc2ccccc2OC1 [Example 163, 1-[5-[4-(4-cyanophenyl)piperidine-1-carbonyl]-2-methyl-phenyl]-3-(2,6-dioxabicyclo[5.4.0]undeca-8,10,12-trien-4-yl)urea] | 102
6 | CCCOCCNC(=O)Nc1cc(C(=O)N2CCC(c3ccc(C#N)cc3)CC2)ccc1C [Example 164, 3-[5-[4-(4-cyanophenyl)piperidine-1-carbonyl]-2-methyl-phenyl]-1-(2-propoxyethyl)urea] | 95
7 | Cc1ccc(C(=O)N2CCC(c3ccc(C#N)cc3)CC2)cc1NC(=O)NCC1COc2ccccc2O1 (stereo not shown) [Example 165, 1-[5-[4-(4-cyanophenyl)piperidine-1-carbonyl]-2-methyl-phenyl]-3-(7,10-dioxabicyclo[4.4.0]deca-2,4,11-trien-8-ylmethyl)urea] | 92.4
8 | Cc1ccc(C(=O)N2CCC(c3ccc(C#N)cc3)CC2)cc1NC(=O)NC1CCS(=O)(=O)C1 (stereo not shown) [Example 169, 1-[5-[4-(4-cyanophenyl)piperidine-1-carbonyl]-2-methyl-phenyl]-3-(1,1-dioxothiolan-3-yl)urea] | 95.6
9 | Cc1ccc(C(=O)N2CCC(c3ccc(C#N)cc3)CC2)cc1NC(=O)NCCC(=O)Nc1ccccn1 [Example 170, 3-[[5-[4-(4-cyanophenyl)piperidine-1-carbonyl]-2-methyl-phenyl]carbamoylamino]-N-pyridin-2-yl-propanamide] | 94.6
10 | Cc1ccc(C(=O)N2CCC(c3ccc(C#N)cc3)CC2)cc1NC(=O)NCC(=O)NC(C)C [Example 171, 2-[[5-[4-(4-cyanophenyl)piperidine-1-carbonyl]-2-methyl-phenyl]carbamoylamino]-N-propan-2-yl-acetamide] | 96.3
11 | CCCCNC(=O)NCCNC(=O)Nc1cc(C(=O)N2CCC(c3ccc(C#N)cc3)CC2)ccc1C [Example 172, 1-butyl-3-[2-[[5-[4-(4-cyanophenyl)piperidine-1-carbonyl]-2-methyl-phenyl]carbamoylamino]ethyl]urea] | 91.8
12 | Cc1ccc(C(=O)N2CCC(c3ccc(C#N)cc3)CC2)cc1NC(=O)NCCCCCNC(=O)N1CCOCC1 [Example 173, N-[5-[[5-[4-(4-cyanophenyl)piperidine-1-carbonyl]-2-methyl-phenyl]carbamoylamino]pentyl]morpholine-4-carboxamide] | 95.5
13 | CCCS(=O)(=O)NCCNC(=O)Nc1cc(C(=O)N2CCC(c3ccc(C#N)cc3)CC2)ccc1C [Example 174, 3-[5-[4-(4-cyanophenyl)piperidine-1-carbonyl]-2-methyl-phenyl]-1-[2-(propylsulfonylamino)ethyl]urea] | 97.4
14 | COC(=O)[C@H](CNC(=O)Nc1cc(C(=O)N2CCC(c3ccc(C#N)cc3)CC2)ccc1C)NC(=O)OC(C)(C)C [Example 177, Methyl (2S)-3-[[5-[4-(4-cyanophenyl)piperidine-1-carbonyl]-2-methyl-phenyl]carbamoylamino]-2-[(2-methylpropan-2-yl)oxycarbonylamino]propanoate] | 94.8
15 | Cc1ccc(C(=O)N2CCC(c3ccc(C#N)cc3)CC2)cc1NC(=O)NCCCN1CCCCCC1=O [Example 178, 1-[5-[4-(4-cyanophenyl)piperidine-1-carbonyl]-2-methyl-phenyl]-3-[3-(2-oxoazepan-1-yl)propyl]urea] | 95.9
16 | CNC(=O)CCNC(=O)Nc1cc(C(=O)N2CCC(c3ccc(C#N)cc3)CC2)ccc1C [Example 179, 3-[[5-[4-(4-cyanophenyl)piperidine-1-carbonyl]-2-methyl-phenyl]carbamoylamino]-N-methyl-propanamide] | 89.2
17 | Cc1ccc(C(=O)N2CCC(c3ccc(C#N)cc3)CC2)cc1NC(=O)N[C@@H](CCS(C)(=O)=O)C(=O)OC(C)(C)C [Example 180, tert-butyl (2S)-2-[[5-[4-(4-cyanophenyl)piperidine-1-carbonyl]-2-methyl-phenyl]carbamoylamino]-4-methylsulfonyl-butanoate] | 92
18 | COC(=O)C1CCC(NC(=O)Nc2cc(C(=O)N3CCC(c4ccc(C#N)cc4)CC3)ccc2C)CC1 (stereo not shown) [Example 181, Methyl 4-[[5-[4-(4-cyanophenyl)piperidine-1-carbonyl]-2-methyl-phenyl]carbamoylamino]cyclohexane-1-carboxylate] | 93.1
19 | Cc1ccc(C(=O)N2CCC(c3ccc(C#N)cc3)CC2)cc1NC(=O)NC(C)CO (stereo not shown) [Example 182, 1-[5-[4-(4-cyanophenyl)piperidine-1-carbonyl]-2-methyl-phenyl]-3-(1-hydroxypropan-2-yl)urea] | 96.2
20 | Cc1ccc(C(=O)N2CCC(c3ccc(C#N)cc3)CC2)cc1NC(=O)NCCCCO [Example 185, 1-[5-[4-(4-cyanophenyl)piperidine-1-carbonyl]-2-methyl-phenyl]-3-(4-hydroxybutyl)urea] | 92.6
21 | Cc1ccc(C(=O)N2CCC(c3ccc(C#N)cc3)CC2)cc1NC(=O)NC(CO)CO [Example 186, 1-[5-[4-(4-cyanophenyl)piperidine-1-carbonyl]-2-methyl-phenyl]-3-(1,3-dihydroxypropan-2-yl)urea] | 86.4
22 | Cc1ccc(C(=O)N2CCC(c3ccc(C#N)cc3)CC2)cc1NC(=O)NCC(C)(C)CO [Example 188, 1-[5-[4-(4-cyanophenyl)piperidine-1-carbonyl]-2-methyl-phenyl]-3-(3-hydroxy-2,2-dimethyl-propyl)urea] | 89
23 | Cc1ccc(C(=O)N2CCC(c3ccc(C#N)cc3)CC2)cc1NC(=O)NCCOCCO [Example 189, 1-[5-[4-(4-cyanophenyl)piperidine-1-carbonyl]-2-methyl-phenyl]-3-[2-(2-hydroxyethoxy)ethyl]urea] | 85.6
24 | Cc1ccc(C(=O)N2CCC(c3ccc(C#N)cc3)CC2)cc1NC(=O)NC(C)(C)CO [Example 190, 1-[5-[4-(4-cyanophenyl)piperidine-1-carbonyl]-2-methyl-phenyl]-3-(1-hydroxy-2-methyl-propan-2-yl)urea] | 82.9

Second part, the molecule after the results:

Row | inhibition at 100 µM [%] | SMILES
25 | 94.9 | Cc1ccc(C(=O)N2CCC(c3ccc(C#N)cc3)CC2)cc1NC(=O)NCC1COCCO1 (stereo not shown) [Example 160, 1-[5-[4-(4-cyanophenyl)piperidine-1-carbonyl]-2-methyl-phenyl]-3-(1,4-dioxan-2-ylmethyl)urea]
26 | 84.2 | Cc1ccc(C(=O)N2CCC(c3ccc(C#N)cc3)CC2)cc1NC(=O)NC1CCOCC1 [Example 162, 1-[5-[4-(4-cyanophenyl)piperidine-1-carbonyl]-2-methyl-phenyl]-3-(oxan-4-yl)urea]
27 | 94.7 | Cc1ccc(C(=O)N2CCC(c3ccc(C#N)cc3)CC2)cc1NC(=O)NCC1CCCCO1 (stereo not shown) [Example 166, 1-[5-[4-(4-cyanophenyl)piperidine-1-carbonyl]-2-methyl-phenyl]-3-(oxan-2-ylmethyl)urea]
28 | 90.3 | Cc1ccc(C(=O)N2CCC(c3ccc(C#N)cc3)CC2)cc1NC(=O)NCC#N [Example 167, 3-(cyanomethyl)-1-[5-[4-(4-cyanophenyl)piperidine-1-carbonyl]-2-methyl-phenyl]urea]
29 | 84.6 | Cc1ccc(C(=O)N2CCC(c3ccc(C#N)cc3)CC2)cc1NC(=O)NCC(F)(F)F [Example 168, 1-[5-[4-(4-cyanophenyl)piperidine-1-carbonyl]-2-methyl-phenyl]-3-(2,2,2-trifluoroethyl)urea]
30 | 96.1 | Cc1ccc(C(=O)N2CCC(c3ccc(C#N)cc3)CC2)cc1NC(=O)NCCNC(=O)C1CCCCC1 [Example 175, N-[2-[[5-[4-(4-cyanophenyl)piperidine-1-carbonyl]-2-methyl-phenyl]carbamoylamino]ethyl]cyclohexanecarboxamide]
31 | 92.6 | Cc1ccc(C(=O)N2CCC(c3ccc(C#N)cc3)CC2)cc1NC(=O)NCCN1CCCC1=O [Example 176, 1-[5-[4-(4-cyanophenyl)piperidine-1-carbonyl]-2-methyl-phenyl]-3-[2-(2-oxopyrrolidin-1-yl)ethyl]urea]
32 | 89.6 | Cc1ccc(C(=O)N2CCC(c3ccc(C#N)cc3)CC2)cc1NC(=O)NCC(C)O (stereo not shown) [Example 183, 1-[5-[4-(4-cyanophenyl)piperidine-1-carbonyl]-2-methyl-phenyl]-3-(2-hydroxypropyl)urea]
33 | 81.7 | Cc1ccc(C(=O)N2CCC(c3ccc(C#N)cc3)CC2)cc1NC(=O)NCC(O)CO (stereo not shown) [Example 184, 1-[5-[4-(4-cyanophenyl)piperidine-1-carbonyl]-2-methyl-phenyl]-3-(2,3-dihydroxypropyl)urea]
34 | 92.2 | Cc1ccc(C(=O)N2CCC(c3ccc(C#N)cc3)CC2)cc1NC(=O)NCCCO [Example 191, 1-[5-[4-(4-cyanophenyl)piperidine-1-carbonyl]-2-methyl-phenyl]-3-(3-hydroxypropyl)urea]
